Laboratory results from patent US8987257B2 (Novartis AG, priority 2011, dated 2015).

Tests used:
H4 mCherry-GFP-LC3 cells = assay: Test 4: Autophagy Assay (mCherry-GFP-LC3 reporter, high-content imaging); format: cell-based; conditions: Homo sapiens, 16-18 h
From the text: Autophagy is a catabolic pathway that degrades bulk cytosol in lysosomal compartments enabling amino acids and fatty acids to be recycled. […] To quantify autophagy induction by mTOR inhibitors, we use a mCherry-GFP-LC3 reporter which is amenable to retroviral delivery into mammalian cells, stable expression and analysis by fluorescence microscopy.
Described hereinafter is an imaging protocol and image recognition algorithm to visualize and measure changes in the autophagic pathway.
Quantification of Autophagy Using High-Content Imaging and Analysis
• 1. Day 0: Cell plating. Subconfluent H4 mCherry-GFP-LC3 cells are harvested by trypsinization, resuspended in growth medium, and counted (H4 cells: Human neuroglioma cell line (ATCC)). A cell suspension of 66′000 cells/mL is prepared and 30 μL are added into the wells of a 384-well plate using an electronic multichannel pipette. […] The cell plates are briefly spun down and placed at 37° C. and 5% CO2. • 2. Day 1: Compound treatment. Compound dose responses are prepared in DMSO. The dose responses are then diluted 1:50 in medium. 10 ul of the diluted compound is added to 30 ul of cells, yielding a final 1:200 dilution of the original compound and final of 0.5% DMSO. Compound-treatments are performed in triplicates. The 384-well plates are placed at 37° C. and 5% CO2. Compound treatment is performed for 16-18 h (see Note 1). • 3. Day 2: Cell fixation. Cells are fixed by adding 10 μL/well 5× concentrated Mirsky's fixative supplemented with 25 μg/mL Hoechst33342. […] The 384-well plate is briefly spun down and incubated for 1 h at room temperature. Cells are then washed using a 384-well plate washer using a protocol which aspirates the volume down to 10 μL/well before dispensing 100 μL/well 1×TBS. Aspiration and dispensing steps are repeated 4 times and a final volume of 100 μL/well is left. The plate is sealed using an adhesive PCR foil. • 4. Imaging. The bottom of the plate is cleaned with 70% ethanol and then imaged using the InCell 1000 automated epifluorescence microscope. 20× magnification is used and 4 different areas (fields) are imaged per well, this typically captures a total of around 400 cells per well. Hoechst33342 images are acquired using an excitation of 360 nm (D360—40× filter), an emission of 460 nm (HQ460—40M filter) and an exposure time of 150 ms. GFP images are acquired using an excitation of 475 nm (S47520× filter), an emission of 535 nm (HQ535—50M filter) and an exposure time of 1 s. mCherry images are acquired using an excitation of 535 nm (HQ535—50× filter), an emission of 620 nm (HQ620—60M filter) and an exposure time of 1 s. A quadruple band pass mirror is used for all images. • 5. Image analysis. The InCell Analysis software is used to analyze the images using the Multi Target Analysis algorithm. First, nuclei are detected in the Hoechst33342 image using top-hat segmentation and a minimal nuclear area of 50 μm^2. Cells are defined using a collar of 10 μm around the nuclei. Second, puncta (organelles) are identified in the mCherry image inside the cells using multi-top-hat segmentation. Third, the mask of the mCherry puncta is transferred onto the GFP image. Fourth, the GFP fluorescence intensity inside the mCherry puncta mask is measured (reference intensity). • 6. The ‘organelles’ parameter reflects mCherry-positive puncta of the mCherry-GFP-LC3 reporter and is used to calculate ‘LC3 puncta/cell’. For this purpose, the number of organelles is calculated per cell and averaged over all the cells in a given well (average per cell basis). mCherry-positive LC3 puncta numbers (y-axis) are plotted against the compound dose response values (x-axis) and EC50 values are calculated for each compound. EC50 values represent compound potency in terms of autophagy activation (e.g. increase in mCherry-positive LC3 puncta count). Notes • 1. Autophagy-modulation and redistribution of mCherry-GFP-LC3 can be already observed after a compound treatment time of 3-4 h. […]

FRAP1/mTOR = FRAP1/mTOR (Homo sapiens (Human), UniProt P42345); assay: Test 2: mTOR Biochemical Assay (FRAP1/mTOR TR-FRET tracer assay); format: binding; conditions: mTOR Kinase Tracer 314
Chain of FRAP1/mTOR (P42345 1360-2549): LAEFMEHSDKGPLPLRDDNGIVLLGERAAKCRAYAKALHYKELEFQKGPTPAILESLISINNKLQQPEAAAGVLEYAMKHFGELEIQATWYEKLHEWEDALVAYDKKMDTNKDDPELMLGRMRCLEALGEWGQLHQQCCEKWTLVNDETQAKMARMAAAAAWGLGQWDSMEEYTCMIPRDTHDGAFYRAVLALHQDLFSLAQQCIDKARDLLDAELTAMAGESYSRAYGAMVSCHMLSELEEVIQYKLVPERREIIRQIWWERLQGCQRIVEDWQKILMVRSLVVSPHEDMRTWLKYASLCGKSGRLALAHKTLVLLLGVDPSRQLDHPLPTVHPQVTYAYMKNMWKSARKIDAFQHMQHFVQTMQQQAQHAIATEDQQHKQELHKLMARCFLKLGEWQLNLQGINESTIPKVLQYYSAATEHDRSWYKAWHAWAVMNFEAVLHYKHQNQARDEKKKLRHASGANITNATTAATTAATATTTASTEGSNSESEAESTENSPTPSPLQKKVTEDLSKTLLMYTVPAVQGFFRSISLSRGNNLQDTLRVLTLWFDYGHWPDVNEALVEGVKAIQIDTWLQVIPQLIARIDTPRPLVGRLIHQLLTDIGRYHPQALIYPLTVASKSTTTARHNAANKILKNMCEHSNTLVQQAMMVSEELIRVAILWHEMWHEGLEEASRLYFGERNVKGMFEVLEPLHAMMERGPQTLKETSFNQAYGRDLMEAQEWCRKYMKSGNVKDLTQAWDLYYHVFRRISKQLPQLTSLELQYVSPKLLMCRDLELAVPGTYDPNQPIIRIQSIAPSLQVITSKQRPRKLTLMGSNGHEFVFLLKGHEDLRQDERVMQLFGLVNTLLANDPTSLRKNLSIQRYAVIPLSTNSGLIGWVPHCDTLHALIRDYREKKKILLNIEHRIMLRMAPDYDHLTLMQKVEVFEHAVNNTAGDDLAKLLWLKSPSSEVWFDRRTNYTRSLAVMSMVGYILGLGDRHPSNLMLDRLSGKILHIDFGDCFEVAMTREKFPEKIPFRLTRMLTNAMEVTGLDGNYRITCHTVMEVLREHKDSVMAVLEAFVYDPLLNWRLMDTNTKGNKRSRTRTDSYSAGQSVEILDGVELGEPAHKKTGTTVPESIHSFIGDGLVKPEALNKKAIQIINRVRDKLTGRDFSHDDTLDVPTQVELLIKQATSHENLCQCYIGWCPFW

[1] = tested on: constitutively active mTOR; assay: Test 3: TSC Assay (high content imaging of phospho-S6 (240/244) in TSC1−/− MEFs); format: cell-based; conditions: Mus musculus, pS6 240/244 staining, 2 hrs compound treatment
PI3Kα = PI3Kα (Homo sapiens (Human), UniProt P42336); assay: Test 1: PI3 Kinase Assay (PI3K KinaseGlo assay); format: biochemical; conditions: 1 μM ATP
Chain of PI3Kα (P42336 other isoform, or with tags, fused parts or gaps): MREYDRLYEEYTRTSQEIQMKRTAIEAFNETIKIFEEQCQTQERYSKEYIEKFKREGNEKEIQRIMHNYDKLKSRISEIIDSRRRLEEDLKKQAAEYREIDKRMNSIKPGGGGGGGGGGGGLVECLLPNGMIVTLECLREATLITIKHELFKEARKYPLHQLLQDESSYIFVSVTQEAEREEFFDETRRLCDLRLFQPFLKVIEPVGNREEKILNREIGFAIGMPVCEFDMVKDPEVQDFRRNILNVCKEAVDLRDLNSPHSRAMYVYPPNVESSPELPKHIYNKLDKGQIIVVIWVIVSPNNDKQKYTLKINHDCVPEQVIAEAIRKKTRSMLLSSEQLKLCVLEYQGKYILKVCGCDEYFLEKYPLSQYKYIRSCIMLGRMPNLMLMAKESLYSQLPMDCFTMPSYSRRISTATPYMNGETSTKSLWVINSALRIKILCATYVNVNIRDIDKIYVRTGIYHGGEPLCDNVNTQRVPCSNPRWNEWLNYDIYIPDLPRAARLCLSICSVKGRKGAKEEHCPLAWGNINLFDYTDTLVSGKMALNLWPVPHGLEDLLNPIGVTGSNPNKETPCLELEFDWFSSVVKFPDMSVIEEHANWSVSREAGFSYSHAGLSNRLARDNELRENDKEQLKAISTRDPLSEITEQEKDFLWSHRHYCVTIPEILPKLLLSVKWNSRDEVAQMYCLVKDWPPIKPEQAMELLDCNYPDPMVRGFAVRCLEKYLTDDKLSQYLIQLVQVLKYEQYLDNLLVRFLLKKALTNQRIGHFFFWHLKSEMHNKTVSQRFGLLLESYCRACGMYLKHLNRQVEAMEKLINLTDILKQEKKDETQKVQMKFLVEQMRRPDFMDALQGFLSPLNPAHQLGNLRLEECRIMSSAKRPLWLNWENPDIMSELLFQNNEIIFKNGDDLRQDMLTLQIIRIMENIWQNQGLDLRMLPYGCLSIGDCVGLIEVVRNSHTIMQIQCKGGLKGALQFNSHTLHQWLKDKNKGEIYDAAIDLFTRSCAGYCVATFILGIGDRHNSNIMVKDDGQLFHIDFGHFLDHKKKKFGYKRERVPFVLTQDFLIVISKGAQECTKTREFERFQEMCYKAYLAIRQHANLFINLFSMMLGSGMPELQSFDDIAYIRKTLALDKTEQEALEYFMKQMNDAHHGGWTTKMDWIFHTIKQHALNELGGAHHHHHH

[2] = Table 4 (unit inferred), mCherry-positive LC3 puncta/cell

EC50 (H4 mCherry-GFP-LC3 cells; Table 1, mCherry-positive LC3 puncta/cell) [nM] | IC50 (FRAP1/mTOR) [nM] | IC50 [1] [nM] | IC50 (PI3Kα) [nM] | EC50 (H4 mCherry-GFP-LC3 cells; [2]) [nM] | SMILES
7730 | 380 | 2990 | > 9100 | – | CS(=O)(=O)Nc1cccc(-c2nc3c(N4CCOCC4)nc(N4CCOCC4)nc3[nH]2)c1 [Example 33, N-[3-(2,6-Di-morpholin-4-yl-9H-purin-8-yl)-phenyl]-methanesulfonamide]
– | 160 | 146 | 2530 | 2320 | CC1(C)COCCN1c1nc(N2CCOCC2)nc2[nH]c(-c3ccc4cc[nH]c4c3)nc12 [Example 39, 6-(3,3-Dimethyl-morpholin-4-yl)-8-(1H-indol-6-yl)-2-morpholin-4-yl-9H-purine]
– | 350 | 841 | 6470 | > 8000 | CC1(C)COCCN1c1nc(N2CCOCC2)nc2[nH]c(-c3cccc4[nH]ccc34)nc12 [Example 40, 6-(3,3-Dimethyl-morpholin-4-yl)-8-(1H-indol-4-yl)-2-morpholin-4-yl-9H-purine]
– | 30 | 457 | 3350 | 2900 | C[C@@H]1COCCN1c1nc(N2CCOC[C@@H]2C)nc2[nH]c(-c3cccc4c3CCN4)nc12 [Example 41, 8-(2,3-Dihydro-1H-indol-4-yl)-2-((S)-3-methyl-morpholin-4-yl)-6-((R)-3-methyl-morpholin-4-yl)-9H-purine]
– | 40 | 99 | 4910 | 4630 | C[C@@H]1COCCN1c1nc(N2CCOC[C@H]2C)c2nc(-c3cccc4c3CCN4)[nH]c2n1 [Example 42, 8-(2,3-Dihydro-1H-indol-4-yl)-2,6-bis-((R)-3-methyl-morpholin-4-yl)-9H-purine]
– | 40 | 39 | 1010 | 160 | C[C@@H]1COCCN1c1nc(N2CCOC[C@@H]2C)nc2[nH]c(-c3cccc4[nH]ccc34)nc12 [Example 43, 8-(1H-Indol-4-yl)-2-((S)-3-methyl-morpholin-4-yl)-6-((R)-3-methyl-morpholin-4-yl)-9H-purine]
– | 140 | 388 | 5950 | 395 | C[C@@H]1COCCN1c1nc(N2CCOC[C@@H]2C)nc2[nH]c(-c3ccc4cc[nH]c4c3)nc12 [Example 44, 8-(1H-Indol-6-yl)-2-((S)-3-methyl-morpholin-4-yl)-6-((R)-3-methyl-morpholin-4-yl)-9H-purine]
– | 650 | 989 | 7080 | > 400 | C[C@@H]1COCCN1c1nc(N2CCOC[C@H]2C)c2nc(-c3ccc4cc[nH]c4c3)[nH]c2n1 [Example 45, 8-(1H-Indol-6-yl)-2,6-bis-((R)-3-methyl-morpholin-4-yl)-9H-purine]
– | 30 | 100 | 580 | 171 | C[C@@H]1COCCN1c1nc(N2CC3CCC(C2)O3)nc2[nH]c(-c3cccc4[nH]ccc34)nc12 [Example 46, 8-(1H-Indol-4-yl)-6-((R)-3-methyl-morpholin-4-yl)-2-(8-oxa-3-aza-bicyclo[3.2.1]oct-3-yl)-9H-purine]
– | 60 | 111 | 60 | 461 | C[C@@H]1COCCN1c1nc(N2CCOCC2)c2nc(-c3cccc4[nH]ccc34)[nH]c2n1 [Example 47, 8-(1H-Indol-4-yl)-2-((R)-3-methyl-morpholin-4-yl)-6-morpholin-4-yl-9H-purine]
– | 1010 | 1460 | 4300 | 6410 | c1cc2ccc(-c3nc4c(N5C[C@@H]6C[C@H]5CO6)nc(N5CCOCC5)nc4[nH]3)cc2[nH]1 [Example 48, 8-(1H-Indol-6-yl)-2-morpholin-4-yl-6-(1S,4S)-2-oxa-5-aza-bicyclo[2.2.1]hept-5-yl-9H-purine]

SMILES | EC50 (H4 mCherry-GFP-LC3 cells; Table 1, mCherry-positive LC3 puncta/cell) [nM] | IC50 (FRAP1/mTOR) [nM] | IC50 [1] [nM] | IC50 (PI3Kα) [nM] | EC50 (H4 mCherry-GFP-LC3 cells; [2]) [nM]
C[C@H]1COCCN1c1nc(N2CCOCC2)c2nc(-c3ccc4cc[nH]c4c3)[nH]c2n1 [Example 49] | – | 370 | 678 | 4430 | > 500
